# Assay results as given in patent US20250034127A1, “AUTOPHAGY INDUCING COMPOUNDS AND USES THEREOF, IN PARTICULAR FOR DISEASES OF THE CNS” (Samsara Therapeutics Inc., priority 2021, published 2025).
# Test system: U2OS cell line stabling expressing RFP-eGFP-hLC3b
# Experiment: Tandem reporter assay (autophagic flux)
# Assay type: cell-based, human
# Conditions: RFP-only puncta as percentage of DMSO-treated control, 24 hours
# Protocol: Selected compounds of this invention were also assessed for their ability to stimulate autophagy using a U2OS cell line stabling expressing RFP-cGFP-hLC3b (a tandem reporter cell line).
# During the process of autophagy, the cargo to be degraded is first enveloped by organelles called autophagosomes. These autophagosomes then fuse with lysosomes, causing them to become acidified and their digestive enzymes to become activated. The term “autophagic flux” is used to represent the dynamic process of autophagy: autophagic flux refers to the whole process of autophagy, including autophagosome formation, maturation, fusion with lysosomes, subsequent breakdown and the release of macromolecules back into the cytosol (Zhang X J, Chen S, Huang K X, Le W D. Why should autophagic flux be assessed? Acta Pharmacol Sin. 2013 May; 34 (5): 595-9. doi: 10.1038/aps.2012.184. Epub 2013 Mar. 11). Compounds that stimulate autophagic flux stimulate the dynamic process of autophagy (the whole process of autophagy).
# LC3b is a protein found in the membrane of autophagosomes which has been used to generate genetic reporters of autophagy in cells. In these systems a tandem fusion of LC3b is engineered with two fluorescent proteins of different wavelengths: one which is acid sensitive (for example eGFP, which fluoresces green) and the other which is acid insensitive (for example RFP, which fluoresces red). Cells expressing RFP-cGFP-hLC3b can be examined using fluorescent microscopy: the autophagosomes present will fluoresce in both channels (either yellow in an overlay of both channels or puncta that are present in both the individual red and green channels) but the autolysosomes present will fluoresce in the RFP (red) channel only. Using a fluorescent microscope, the number of autophagosomes and autolysosomes can be counted, allowing for the monitoring of both the induction of autophagy (total puncta count) and the rate of autophagic flux (ratio of red-only to red-and-green puncta). The influence of small molecules on autophagy induction and flux can be assessed using this system by comparison to a non-treated control.
# Representative Procedure: Human osteosarcoma U2OS cells stably expressing RFP-eGFP-hLC3b were seeded (10,000 cells/well) into a 96-well glass-bottom plate (Cell Carrier Ultra, Perkin Elmer) in DMEM Glutamax media (Gibco) supplemented with 10% Fetal Bovine Serum (FBS) and antibiotics (100 u/ml penicillin, 100 μg/ml streptomycin, Invitrogen), then incubated overnight in a humified atmosphere at 37° C. and 5% CO2. The cells were then treated with the compounds of interest, dissolved in DMSO, in a duplicated 5- or 10-point dose-response. 8 wells were treated with an equivalent volume of DMSO, 4 with […] torin-1 as a positive control (MCE) and 4 wells with 0.4 μM torin-1 plus 0.2 μM bafilomycin (MCE) as a control for flux inhibition. The cells were returned to the incubator and the treatment continued for 24 hours. After treatment, the media was aspirated off and the cells fixed with a solution of 4% formaldehyde+1% glutaraldehyde (Sigma) in dPBS (plus magnesium and calcium, Gibco). Fixation was allowed to proceed for 15 minutes at room temperature then the fixative solution discarded and replaced with PBS (Gibco) plus Hoescht 33342 (1 μg/ml, Sigma). After 30 minutes the plates were imaged on an Opera Phenix confocal microscope (Perkin-Elmer) using a 40× water objective, collecting using DAPI, mCherry and GFP channels. Cells were detected based upon the staining of their nuclei with DAPI using the Harmony image analysis software (Perkin-Elmer) and the number of autophagosomes (GFP and RFP puncta) and autolysosomes (RFP only puncta) per cell were counted using the spot picking function within the software.
Structure (SMILES),Autolysosome % DMSO activity (compound concentration of 1 μM) [%],Autolysosome % DMSO activity (compound concentration of 10 μM) [%]
"C[C@H]1CN(C(=O)c2csc(-c3cnn(-c4ccc(C5CC5)cc4)c3)n2)CCN1 [Compound 266, (3S)-1-{2-[1-(4-cyclopropylphenyl)-1H-pyrazol-4-yl]-1,3-thiazole-4-carbonyl}-3-methylpiperazine]",176,273
"C[C@H]1CN(C(=O)c2csc(-c3cnn(-c4ccc(C(C)(C)C)cc4)c3)n2)CCN1 [Compound 270, (3S)-1-{2-[1-(4-tert-butylphenyl)-1H-pyrazol-4-yl]-1,3-thiazole-4-carbonyl}-3-methylpiperazine]",251,
"CC(C)c1ccc(-n2cc(-c3nc(C(=O)N4CCN[C@@H](C)C4)cs3)cn2)cc1 [Compound 273, (3S)-3-methyl-1-(2-{1-[4-(propan-2-yl)phenyl]-1H-pyrazol-4-yl}-1,3-thiazole-4-carbonyl)piperazine]",224,
"C[C@H]1CN(C(=O)c2nc(-c3cnn(-c4ccccc4)c3)c[nH]2)CCN1 [Compound 279, (3S)-3-methyl-1-[5-(1-phenyl-1H-pyrazol-4-yl)-1H-imidazole-2-carbonyl]piperazine]",123,158
"CC1CC(N(C(=O)c2csc(-c3cnn(-c4ccccc4)c3)n2)C(C)C)CCN1 (stereo not drawn) [Compound 297, N-(2-methylpiperidin-4-yl)-2-(1-phenyl-1H-pyrazol-4-yl)-N-(propan-2-yl)-1,3-thiazole-4-carboxamide]",109,119
"CC1CC(N(C(=O)c2csc(-c3cnn(-c4ccccc4)c3)n2)C(C)C)CC(C)N1 (stereo not drawn) [Compound 298, N-(2,6-dimethylpiperidin-4-yl)-2-(1-phenyl-1H-pyrazol-4-yl)-N-(propan-2-yl)-1,3-thiazole-4-carboxamide]",187,151
"CC(C)N(C(=O)c1csc(-c2cnn(-c3ccccc3)c2)n1)[C@@H]1CN[C@H](C)C1 [Compound 299, N-[(3S,5R)-5-methylpyrrolidin-3-yl]-2-(1-phenyl-1H-pyrazol-4-yl)-N-(propan-2-yl)-1,3-thiazole-4-carboxamide]",162,152
